Assay results as given in PubChem BioAssay (NCI).
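Exposure lasted 48 hours, with cells grown in 96-well plates and compounds tested at five concentrations. TGI is the concentration that stops growth completely.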

Tests used:
Assay in all cases: DTP human tumour cell line panel, 48 h
786-0 renal = test system: 786-0 renal
BT-549 breast = test system: BT-549 breast
CAKI-1 renal = test system: CAKI-1 renal
COLO 205 colon = test system: COLO 205 colon
DU-145 prostate = test system: DU-145 prostate
HCT-15 colon = test system: HCT-15 colon
HS 578T breast = test system: HS 578T breast
HT29 colon = test system: HT29 colon
LOX IMVI melanoma = test system: LOX IMVI melanoma
MDA-N = test system: MDA-N
NCI-H23 lung = test system: NCI-H23 lung
NCI/ADR-RES ovarian = test system: NCI/ADR-RES ovarian
OVCAR-3 ovarian = test system: OVCAR-3 ovarian
PC-3 prostate = test system: PC-3 prostate
RXF 393 renal = test system: RXF 393 renal
SK-MEL-2 melanoma = test system: SK-MEL-2 melanoma
T-47D breast = test system: T-47D breast
UACC-62 melanoma = test system: UACC-62 melanoma
UO-31 renal = test system: UO-31 renal
SK-OV-3 ovarian = test system: SK-OV-3 ovarian

SMILES | TGI (786-0 renal) [µM] | TGI (BT-549 breast) [µM] | TGI (CAKI-1 renal) [µM] | TGI (COLO 205 colon) [µM] | TGI (DU-145 prostate) [µM] | TGI (HCT-15 colon) [µM] | TGI (HS 578T breast) [µM] | TGI (HT29 colon) [µM] | TGI (LOX IMVI melanoma) [µM] | TGI (MDA-N) [µM] | TGI (NCI-H23 lung) [µM] | TGI (NCI/ADR-RES ovarian) [µM] | TGI (OVCAR-3 ovarian) [µM] | TGI (PC-3 prostate) [µM] | TGI (RXF 393 renal) [µM] | TGI (SK-MEL-2 melanoma) [µM] | TGI (T-47D breast) [µM] | TGI (UACC-62 melanoma) [µM] | TGI (UO-31 renal) [µM] | TGI (SK-OV-3 ovarian) [µM]
CC(=O)OCC1OC(SC2=N/C(=C\c3cc4c(=O)c5ccccc5sc4s3)C(=O)N2c2ccccc2)C(OC(C)=O)C(OC(C)=O)C1OC(C)=O (stereo not given) | > 100 | > 100 | > 100 | > 100 | > 100 | > 100 | > 100 | > 100 | > 100 | > 100 | > 100 | > 100 | > 100 | > 100 | > 100 | > 100 | > 100 | > 100 | > 100 | –
CCCCCCCCCCCC(=O)Oc1c(Cl)cc(Cl)c(OC(=O)C(=O)Oc2c(Cl)cc(Cl)c(OC(=O)CCCCCCCCCCC)c2Cl)c1Cl | > 100 | > 100 | > 100 | > 100 | > 100 | – | > 100 | > 100 | > 100 | > 100 | > 100 | > 100 | – | > 100 | > 100 | – | > 100 | > 100 | > 100 | > 100
N=c1oc2cc(O)ccc2cc1C(=O)NCc1ccccc1 | > 100 | 71.1 | 69.7 | 25.4 | 56.4 | > 100 | 45.4 | > 100 | > 100 | 49.7 | 58.7 | 53.5 | 57.9 | > 100 | 85 | 34.2 | 33.7 | – | > 100 | 70
COc1cccc(-c2c(C#N)c(N)nc3c2CCS(=O)(=O)c2ccc(C)cc2-3)c1 | > 100 | > 100 | > 100 | > 100 | > 100 | > 100 | > 100 | > 100 | > 100 | > 100 | > 100 | > 100 | > 100 | > 100 | – | > 100 | > 100 | > 100 | > 100 | –
NC(=O)NNc1nc2ccccc2c(=O)n1NC(=O)C(=O)Nc1ccc(Cl)cc1Cl | > 100 | > 100 | > 100 | – | – | > 100 | > 100 | > 100 | > 100 | > 100 | > 100 | > 100 | > 100 | > 100 | > 100 | > 100 | > 100 | > 100 | > 100 | > 100
CC(=O)CCCCC(=O)Nc1ccc(CC(NC(=O)OC(C)(C)C)C(=O)NCC(=O)OCc2ccccc2)cc1 (stereo not given) | 49 | 28.6 | 29.1 | 34.7 | 88.5 | > 100 | 48.4 | 36.7 | 29.3 | 38.6 | 76.6 | > 100 | 27.9 | 27.5 | 54.5 | – | 42.6 | – | 39.2 | 52.7
O=C(/C=C/c1ccccc1)/C=N/N1C(=S)N(c2ccccc2)C(=Nc2ccccc2)C1=Nc1ccccc1 | > 100 | > 100 | > 100 | > 100 | > 100 | > 100 | > 100 | > 100 | – | > 100 | > 100 | > 100 | > 100 | > 100 | > 100 | > 100 | > 100 | > 100 | > 100 | > 100
COC(=O)C(CC12CC3CC(CC(C3)C1)C2)NC(=O)C(N)CC(=O)O (stereo not given) | > 100 | > 100 | > 100 | > 100 | > 100 | > 100 | > 100 | > 100 | – | > 100 | > 100 | > 100 | – | > 100 | > 100 | > 100 | > 100 | > 100 | > 100 | > 100
CC(=O)N1C(c2[nH]c3ccccc3c2-c2ccccc2)CCN1c1ccccc1 (stereo not given) | > 10 | > 10 | > 10 | > 10 | > 10 | > 10 | > 10 | > 10 | > 10 | > 10 | > 10 | > 10 | > 10 | > 10 | > 10 | > 10 | > 10 | – | > 10 | > 10
COc1ccc2oc(=N)c(C(=O)NCc3ccccc3)cc2c1 | > 100 | 45.4 | > 100 | > 100 | 88.8 | > 100 | 42.7 | > 100 | > 100 | 59.9 | 43.1 | 36.8 | > 100 | > 100 | 42.4 | 43.5 | 44.6 | – | > 100 | 56.7
CCOC(=O)c1ccc(N=C2C(=S)N(c3ccc(C(=O)OCC)cc3)C(=N)N2/N=C/c2ccccc2)cc1 | 30 | 80.2 | 42.2 | 25 | > 100 | > 100 | > 100 | > 100 | – | 33 | – | > 100 | 28.8 | 18.4 | 19.3 | > 100 | 63.1 | 38.3 | 28.9 | 59
CCOC(=O)c1c(N)sc2c1C(C(=O)OCC)CC2 (stereo not given) | > 100 | > 100 | – | > 100 | – | > 100 | > 100 | > 100 | – | > 100 | > 100 | – | – | > 100 | > 100 | > 100 | > 100 | > 100 | > 100 | –
O=C(Cc1ccccc1)NNc1nc(NNC(=O)c2ccncc2)nc(Nc2ccc([N+](=O)[O-])cc2)n1 | > 10 | > 10 | > 10 | > 10 | > 10 | > 10 | > 10 | > 10 | > 10 | > 10 | > 10 | > 10 | > 10 | > 10 | – | – | > 10 | > 10 | > 10 | > 10
O=C1C(Cl)=C(OCCCCl)C(=O)c2c(O)ccc(O)c21 | 4.81 | 3.86 | 2.51 | 3.09 | 22.8 | 5.06 | 22.8 | 5 | 3.35 | 2.98 | 5.53 | 24.3 | 6.77 | 12.7 | 4.38 | – | 6.43 | 3.9 | 12.1 | 35.9
C=CCOc1ccc(/C(N=Nc2ccc([N+](=O)[O-])cc2)=N/NC(=O)c2ccccc2)cc1OC | > 100 | > 100 | > 100 | > 100 | > 100 | > 100 | > 100 | > 100 | > 100 | > 100 | > 100 | > 100 | > 100 | > 100 | > 100 | > 100 | > 100 | > 100 | > 100 | –
CC(C)(Br)C(Br)CCC(C)(Br)C(Br)CO (stereo not given) | > 10 | > 10 | > 10 | > 10 | > 10 | > 10 | > 10 | > 10 | – | > 10 | > 10 | > 10 | > 10 | > 10 | > 10 | – | > 10 | – | > 10 | > 10
C[n+]1c2ccccc2c(C(=O)Nc2ccc(S(=O)(=O)Nc3ccnn3-c3ccccc3)cc2)c2ccccc21 | > 100 | > 100 | > 100 | > 100 | > 100 | > 100 | > 100 | > 100 | > 100 | > 100 | > 100 | > 100 | > 100 | > 100 | – | > 100 | > 100 | > 100 | > 100 | > 100
CC12CCC(CC1=O)C2(C)CCC(N)=O (stereo not given) | > 100 | > 100 | > 100 | > 100 | > 100 | > 100 | > 100 | > 100 | – | > 100 | > 100 | > 100 | > 100 | > 100 | > 100 | > 100 | > 100 | > 100 | > 100 | > 100
C/C(=N/NC(=S)Nc1ccc([N+](=O)[O-])cc1)c1cccc(/C(C)=N\NC(=S)Nc2ccc([N+](=O)[O-])cc2)n1 | 11.6 | 2.36 | 8.06 | 15.7 | > 37.7 | 2.67 | > 81.7 | 16 | 12.7 | 15.1 | 12.2 | > 29.9 | – | 18.7 | 4.73 | 23.6 | 24.2 | 2.87 | 4.97 | 10.7
CCN(CC)CCC(=O)c1ccc(Oc2ccc(Cl)cc2)cc1 | 28.3 | 32.6 | 37.9 | 45.1 | 47.8 | 38.8 | 59 | 47.2 | 28.8 | 29.6 | 34 | 56.7 | 28.6 | 28.3 | 43.2 | 32 | 44.3 | 35.2 | 32.4 | –
S=c1sc2c(s1)SCCCCSCCCCSc1sc(=S)sc1SCCCCSCCCCS2 | > 100 | > 100 | > 100 | > 100 | > 100 | > 100 | > 100 | > 100 | > 100 | > 100 | > 100 | > 100 | > 100 | > 100 | – | > 100 | > 100 | > 100 | > 100 | > 100
CCOC(=O)N/N=C(/OCC)c1ccccc1 | > 100 | > 100 | > 100 | > 100 | > 100 | > 100 | > 100 | > 100 | > 100 | > 100 | > 100 | > 100 | > 100 | – | > 100 | > 100 | > 100 | > 100 | > 100 | > 100
[N-]=[N+]=Nc1c(C=O)c(=O)n2c3c(cccc13)CCC2 | 8.83 | 6.07 | 16.2 | 4.63 | 21 | 11.5 | 57.3 | > 70.2 | 25.4 | 15.3 | 12.2 | > 45.6 | 6.27 | 27.2 | 3.76 | – | 15.5 | 26.5 | 6.39 | 33.9
N=c1oc2c(Cl)cc(Cl)cc2cc1C(=O)Nc1cccc2ccccc12 | 12.8 | > 100 | > 67.7 | > 32.7 | > 100 | > 100 | > 53.2 | > 100 | > 24 | > 100 | > 52.6 | 28.2 | > 40 | > 100 | 76.8 | – | 25.2 | > 100 | > 40.9 | > 77.6
CC(=O)N1C(=O)/C(=C\C(=O)c2ccc([N+](=O)[O-])cc2)c2ccccc21 | 29.1 | 42.1 | 41.2 | 41.1 | > 100 | 32.1 | 54.2 | 34.6 | – | 49.2 | 88.7 | > 100 | 32.2 | 58.4 | > 100 | > 100 | 61.9 | 38.1 | 63 | > 100
